Test results taken from patent US10722488B2, “Hest G-18-0 and benzoyl peroxide compositions and methods for using the same” (RODAN & FIELDS, LLC, priority 2016, dated 2020).

Tests used:
[1] = cited from earlier work
[2] = Solubility of benzoyl peroxide, judged by eye (crystals disappear or stay at the bottom); type: physicochemical
Protocol: In embodiments described herein, the solubility of benzoyl peroxide is increased. The composition of benzoyl peroxide and Hest G-18-0 is transparent. Solubility is measured by visualizing whether the solid crystalline form of benzoyl peroxide disappears in the liquid or if it can be seen at the bottom of the solution in an undissolved crystalline form.

skin of the forearm = conditions: in vivo

| Molecule | solubility of benzoyl peroxide in water ([1]; at 25° C.) | solubility in common cosmetic solvents ([1]; ethanol, glycerin, propylene glycol, or butylene glycol) | solubility of benzoyl peroxide in Hest G-18-0 ([2]; 5% benzoyl peroxide in 100% Hest G-18-0, visual, FIG. 1 right beaker) | solubility of benzoyl peroxide in ethoxydiglycol ([2]; 5% benzoyl peroxide in 100% ethoxydiglycol, visual, FIG. 1 left beaker) | erythema of the skin (skin of the forearm) |
| --- | --- | --- | --- | --- | --- |
| O=C(OOC(=O)c1ccccc1)c1ccccc1 [benzoyl peroxide, Benzoyl peroxide] | 9.1 ppm | practically insoluble | completely dissolved | insolubility |  |
| Glycereth-18 ethylhexanoate [Hest G-18-0] |  |  |  |  | greatly reduced |
